{"source": "patent US20150238466A1", "about": "“LIM KINASE INHIBITORS” (RAMOT AT TEL-AVIV UNIVERSITY LTD., priority 2012, published 2015)", "key": {"[1]": {"tested_on": "NF1−/− MEFs", "experiment": "Actin stress fibers, rhodamine-phalloidin staining of NF1−/− MEFs", "type": "cell-based, mouse", "experimental": "MEFs were seeded on glass coverslips in 6-well plates at the densities of 2.5×10^4 cells per well. […] Cells were further incubated for 24 hours and were then fixed, permeabilized, and washed. Rhodamine-labeled phalloidin was added for 30 minutes and the slides were then washed, mounted, and imaged. F-actin was visualized and then photographed under an LSM510 confocal microscope (×63 objective) fitted with rhodamine filters. Statistical analysis was performed by counting 100 cells from each slide, with or without stress fibers, under an Olympus fluorescence microscope."}, "[2]": {"tested_on": "NF1−/− MEFs", "experiment": "Growth (cell number) of NF1−/− MEFs, direct counting after 5 days", "type": "cell-based, mouse", "conditions": "for inhibition at 5 µM / inhibition at 25 µM: Mus musculus", "experimental": "Cells were directly counted and typical inhibition curves are shown (means±SEM, n=9; **P<0.01, ***P<0.001).\nThe cells were plated in 24-well plates at a density of 5×10^3 cells per well."}, "[3]": {"tested_on": "LIMK", "experiment": "Western blot of p-cofilin in NF1−/− MEFs", "type": "cell-based, mouse", "experimental": "FIG. 3A-B presents an immunoblot and graphical presentation of immunoblots. […] Normalization was performed using beta-tubulin. Average inhibition was calculated as a percentage of control (mean±SD, n=3,*P<0.05; **P<0.01 compared to control (Student's t-test)).\nNF1−/− MEFs were plated at a density of lx 10^5 or 5×10^5 cells in 6-well plates or 10-cm dishes, respectively, and were allowed to grow overnight in a medium containing 10% FCS. […] The cells were then lysed with solubilization buffer (50 mMTris-HCl at a pH of 7.6, 20 mM MgCl2, 200 mM NaCl, 0.5% NP40, 1 mM Dithiothreitol, and protease inhibitors), and the lysate (50 μg) was subjected to SDS-PAGE and then immunoblotted with one of the following antibodies: anti-p-cofilin (1:1000), anti-cofilin (1:1000), anti-β-tubulin (1:500). The immunoblots were then exposed to peroxidase-goat anti-rabbit IgG (1:2500), and protein bands were visualized by enhanced chemiluminescence and quantified by densitometry (EZ-Qant). Rabbit anti-cofilin and p-cofilin (Ser3) were from Cell Signaling Technolgy (Beverly, Mass.); mouse anti-β-tubulin antibody was from Sigma-Aldrich; peroxidase-goat anti-mouse IgG and peroxidase-goat anti-rabbit IgG were from Jackson ImmunoResearch Laboratories (West Grove, Pa.).\nIt has been previously shown that the levels of phosphorylated cofilin (p-cofilin) are high in NF1^−/− Mouse Embryonic Fibroblasts (MEFs). Thus, these cells were used herein to examine the impact of compound 1 on phosphorylation of cofilin.\nThe cells were lysed and subjected to immunoblotting with anti-p-cofilin, anti-cofilin, and anti-β-tubulin (as loading control) antibodies. […] These findings, taken together, support the predicted LIMK model as well as the predicted LIMK inhibitor."}, "[4]": {"tested_on": "NF1−/− MEFs", "experiment": "Scratch-induced (wound-healing) migration assay, NF1−/− MEFs", "type": "cell-based, mouse", "conditions": "within 3 hours, compound 1 at 50 μM; untreated cells 50%", "experimental": "(§1) FIG. 6 is a graph showing gap width in NF1−/− MEFs cells examined (mean±SD, n=9), expressed as a percentage of the gap at the time of scratching.\n(§2) Scratch-induced migration assay was performed as described in Goldberg et al.. Briefly, NF1-knockout and wt MEFs were seeded on collagen-covered 35-mm plates at a cell density of 1.5×10^5 per plate. […] Three areas were scratched in each plate, creating three gaps of similar widths. The media and the inhibitors were then replenished. Immediately thereafter, and at the time points indicated in the Examples section, phase-contrast images of the plates were obtained with a CCD camera connected to an Olympus fluorescence microscope (×10 objective). The region imaged was marked at time “zero” in order to enable photographing the same area at the different time points, and so that a specific population of migrating cells may be examined. The widths of the gaps treated with the inhibitor were measured at different time points, using the Image-Pro Plus software. […] Statistical analysis of the results was performed, of either the mean gap width (in arbitrary units) of compound 1-treated cells relative to the control at different time points (means±SD, n=9) or the percentage of migration, calculated as the width of the gap still open at the final time point, expressed as a percentage of the gap size at zero time for each treatment (means±SD, n=9). […]"}, "[5]": {"tested_on": "NF1−/− MEFs", "experiment": "Anchorage-independent growth in soft agar", "type": "cell-based, mouse", "conditions": "25 and 50 μM, 14 days", "experimental": "FIG. 7B is a graph showing a statistical analysis of the anchorage-independent growth experiment. Columns, mean (n=5); bars, SD; *P<0.001.\nNoble agar 2% (Difco, Detroit, Mich.) was mixed with DMEM×2 medium, containing 10% FCS, 4 mM L-glutamine, 200 units/mL penicillin, and 0.2 mg/mL streptomycin. The mixture (50 μL) was poured into 96-well plates to provide the agar base at a final agar concentration of 1%. […] The cells were incubated for 14 days and then stained for 4 hours with 1 mg/mL 344,5-dimethylthiazol-2-yl)-2 5-diphenyltetrazolium bromide (MTT; Sigma-Aldrich, St. Louis, Mo.), which stains active mitochondria in living cells, and the colonies were imaged. Colonies larger than 0.16 mm^2 (mean±SD, n=5) were counted using Image-Pro Plus software (Media Cybernetics, Carlsbad, Calif.). The average percentage of colonies in each group (means±SD, n=5) was calculated by dividing the number of colonies of a particular treatment and specific group size by the number of colonies of the same size in the corresponding untreated control group."}, "[6]": {"experiment": "In-vivo toxicity, single oral dose in nude mice", "conditions": "single oral dose 20-100 mg/kg in 0.5% CMC, followed for 2 weeks", "from_the_text": "The mice were weighted and followed for 14 days after the administration. Average weight of treated mice is presented. (n=2).\nThe mice were followed for 2 weeks to measure toxic effects."}, "[7]": {"tested_on": "Panc-1-pancreatic cancer tumor cell line", "experiment": "Growth inhibition of Panc-1 cells", "type": "cell-based", "conditions": "Homo sapiens, 120 h; Panc-1, 5 days; read-out: IC50, reduction of cell number", "from_the_text": "(§3) Cells were directly counted and typical inhibition curves are shown."}, "[8]": {"tested_on": "U87-glioblastoma", "experiment": "Growth inhibition of U87 cells", "type": "cell-based", "conditions": "Homo sapiens, U-87 MG, 120 h; U87, 5 days; read-out: IC50, reduction of cell number", "from_the_text": "as §3"}, "[9]": {"tested_on": "ST-88-swanoma", "experiment": "Growth inhibition of ST-88 cells", "type": "cell-based", "conditions": "120 h; ST-88, 5 days; read-out: IC50, reduction of cell number", "from_the_text": "as §3"}, "[10]": {"tested_on": "Panc-1 tumor", "experiment": "Panc-1 human pancreatic tumor growth in nude mice", "type": "in vivo, mouse", "conditions": "for average tumor size: control group 745", "from_the_text": "FIG. 11A—Panc-1 cells were implanted s.c. in the right flank of athymic nude mice. After 7 days, the mice were separated randomly into one vehicle-treated control group and two T-56-LIMKi groups (n=8). […] Tumor volumes (means±S.E.M, * p-value<0.05) during the experiment period are shown. FIG. 11B—The mice were weighted at indicated time point. Presented are average weights of each group (grams±stdev).\nNude CD1-Nu mice (6 weeks old) were housed in barrier facilities on a 12-h light/dark cycle. Food and water were supplied ad libitum. On day zero, 5×10^6 Panc-1 cells in 0.1 ml of PBS were implanted s.c. just above the right femoral joint When tumor volumes reached values of 0.06-0.07 cm3 (day 0 of compound-1 treatment), the mice were randomly separated into three groups. Control mice received vehicle; compound-1-treated mice received 30 or 60 mg/kg T56-LIMKi (oral administration of 0.1 ml with 0.5% CMC daily). Tumor volume was calculated as (length×width)×[(length+width)÷2].\nThe effects of compound ion human pancreatic tumor growth in nude mice was examined, i.e., on cell transformation in an in vivo model. Mice received 5×10^6 cells subcutaneously (s.c.) in the right flank. […] By day 31, 4 out of 8 tumors in the 60 mg/kg treated group disappeared completely."}, "[11]": {"tested_on": "wt MEFs", "experiment": "Scratch-induced (wound-healing) migration assay, wt MEFs", "type": "cell-based, mouse", "conditions": "compound 1 at 50 μM", "experimental": "as §1, §2"}}, "note": "Values joined by “and” are separate entries in the source; they are usually repeats but may differ in a detail not shown here. Identical values can stand only once."}
{"molecule": "CC(C)=CCC/C(C)=C/CC/C(C)=C/CSc1ccccc1C(=O)O", "note": "[FTS, S-trans, trans-farnesyl thiosalicyclic acid, reference compound]", "values": [{"measurement": "decrease in stress fiber formation", "setting": "[1]; FTS alone", "result": "20%±5.6%"}, {"measurement": "growth inhibition", "setting": "[2]; FTS alone (zero compound 1)", "result": "33%±1.6%"}]}
{"molecule": "CC(C)C(=O)Nc1ncc(-c2cc(C(F)F)nn2-c2c(Cl)cccc2Cl)s1", "note": "[BMS-5, N-{5-(2-(2,6-dichloro-phenyl)-5-difluoromethyl-2H-pyrazol-3-yl)-thiazol-2-yl}-isobutyramide, reference compound]", "values": [{"measurement": "reduction of p-cofilin level, potency compared with compound 1", "setting": "[3]; similar experiment, 2 hours, NF1−/− MEFs", "result": "more potent than compound 1"}]}
{"molecule": "Cc1cc(C(=O)Nc2cccc(C(=O)Nc3cccc(C(F)(F)F)c3)c2)on1", "note": "[compound 1]", "values": [{"measurement": "gap closed", "setting": "[4]", "result": 10, "unit": "%"}, {"measurement": "inhibition of cofilin phosphorylation by LIMK", "setting": "[3]; 50 μM", "result": "about 50%"}, {"measurement": "amounts of total cofilin", "setting": "[3]; 2 hours, NF1−/− MEFs", "result": "did not affect"}, {"measurement": "level of p-cofilin", "setting": "[3]; compound 1 at 10-50 μM, 2 hours, serum-starved NF1−/− MEFs", "result": "reduced"}, {"measurement": "decrease in the number of cells exhibiting stress fibers", "setting": "[1]; compound 1 at 50 μM", "result": "26%±7.7% and 30%"}, {"measurement": "colony formation in soft agar", "setting": "[5]", "result": "inhibited in a dose-dependent manner"}, {"measurement": "body weight", "setting": "[6]", "result": "no weight lost was detected"}, {"measurement": "toxic effects (appearance of mice)", "setting": "[6]", "result": "looked normal at all doses"}, {"measurement": "toxic effects (appearance of mice)", "setting": "[6]; listed as T56-LIMKi", "result": "not toxic"}, {"measurement": "IC50", "setting": "[7]", "result": "~25", "unit": "µM"}, {"measurement": "IC50", "setting": "[8]", "result": "~25", "unit": "µM"}, {"measurement": "IC50", "setting": "[9]", "result": "~25", "unit": "µM"}, {"measurement": "significance of the reduction of tumor volume", "setting": "[10]; 60 mg/kg daily oral", "result": "significant from day 18"}, {"measurement": "mouse weight", "setting": "[10]; 30 or 60 mg/kg daily oral", "result": "not affected"}, {"measurement": "signs of cytotoxicity", "setting": "[10]; 30 or 60 mg/kg daily oral", "result": "no signs of cytotoxicity"}, {"measurement": "average tumor size", "setting": "[10]; Day 22, 30 mg/kg daily oral", "result": 488, "unit": "mm^3"}, {"measurement": "average tumor size", "setting": "[10]; Day 22, 60 mg/kg daily oral", "result": 268, "unit": "mm^3"}, {"measurement": "tumors that disappeared completely", "setting": "[10]; by day 31, 60 mg/kg daily oral", "result": "4 out of 8"}, {"measurement": "mobility of wt MEFs", "setting": "[11]", "result": "not affected"}, {"measurement": "inhibition at 5 µM", "setting": "[2]; compound 1 at 5 μM in the absence of FTS", "result": 13, "unit": "%"}, {"measurement": "inhibition at 5 µM", "setting": "[2]; compound 1 at 5 μM in the presence of FTS", "result": 60, "unit": "%"}, {"measurement": "inhibition at 25 µM", "setting": "[2]; compound 1 at 25 μM in the absence of FTS", "result": 51, "unit": "%"}, {"measurement": "inhibition at 25 µM", "setting": "[2]; compound 1 at 25 μM in the presence of FTS", "result": 85.5, "unit": "%"}, {"measurement": "reduction in cell proliferation", "setting": "[2]; compound 1 at 50 μM", "result": 70, "unit": "%"}]}
